Assay results reported in patent US20250201957A1, “SEPARATION RECOVERY METHOD OF METAL IONS AND ACIDIC METAL EXTRACTANT” (FUJIFILM Corporation, priority 2022, published 2025).

Assay: pKa of metal extractant by neutralization titration
Format: physicochemical
Conditions: not given
Source text: The acidic metal extractant includes two or more coordinating functional groups, and at least one of the coordinating functional groups includes a carboxy group or each of acidic coordinating functional groups where one of R^C's represents a hydrogen atom. In the present invention, the acidic metal extractant is an acidic metal extractant for dissociating hydrogen ions (H^+) and can be defined by an acid dissociation constant pKa. For example, an acidic metal extractant having pkA of 0.1 to 12 is preferable, an acidic metal extractant having pkA of 0.5 to 12 is more preferable, and an acidic metal extractant having pkA of 1 to 8 is still more preferable. In the present invention, the pKa is a value measured by neutralization titration.
Regarding the synthesized or prepared acidic metal extractant, the molecular weight and the pKa calculated using the above-described method are shown in Table 1-2.

| Compound | pKa |
| --- | --- |
| CCCCC(CC)COP(=O)(CP(=O)(OCC)OCC(CC)CCCC)OCC (stereo not shown) [E-7] | None |
| Versatic acid 10 [VA-10, reference compound] | 7.9 |

Same assay, conditions: read-out: pKa

| Compound | pKa |
| --- | --- |
| CCCCC(CC)COP(=O)(O)CCP(=O)(O)OCC(CC)CCCC (stereo not shown) [E-5] | 0.9 |
| CCCCCCCCOP(=S)(S)CP(=S)(S)OCCCCCCCC (stereo not shown) [E-6] | 0.3 |
| CCCCC(CC)COP(=O)(O)CCCP(=O)(O)OCC(CC)CCCC (stereo not shown) [E-1] | 1.1 |
| CCCCC(CC)COP(=O)(O)CP(=O)(O)OCC(CC)CCCC (stereo not shown) [E-2] | 0.8 |
| CCCCC(CC)COP(=O)(O)CC(CC)CCCC (stereo not shown) [PC-88A, mono-2-ethylhexyl (2-Ethylhexyl)phosphonate, reference compound] | 4.6 |
| CCCCC(CC)COP(=O)(O)C(C)(O)P(=O)(O)OCC(CC)CCCC (stereo not shown) [E-8] | 1.1 |
| CCCCC(CC)CC(CC(CC)CCCC)(C(=O)O)C(=O)O (stereo not shown) [E-4] | 6.5 |
| CCCCC(CC)COP(=O)(O)CP(=O)(OCC)OCC(CC)CCCC (stereo not shown) [E-3] | 2.1 |
